In paper PMC10573254, “Development of Novel Class of Phenylpyrazolo[3,4-d]pyrimidine-Based Analogs with Potent Anticancer Activity and Multitarget Enzyme Inhibition Supported by Docking Studies” (International Journal of Molecular Sciences, 2023):
Where two headings read alike, the source gives them in different places.

Legend:
HCT-116 = assay: MTT cytotoxicity assay, HCT-116; type: cell-based; details: Homo sapiens
Method: (§5) The cytotoxic activity was assessed using the 3-(4,5-dimethylthiazol-2-yl)-2,5-diphenyl tetrazolium bromide (MTT) colorimetric assay, as reported previously [62, 63]. […] Briefly, the designated cell lines were cultured at a concentration of 5 × 10^4 cell/well in 96-well plates. The cells were incubated for 24 h under optimum conditions. Following this, the designated molecules were introduced (in serial dilutions from 0 to 50 μg/mL), and the cells were incubated for an additional 24 h. Following this, the media were withdrawn, and 100 μL of fresh medium was added. Then, 10 µL of the 12 mM MTT stock solution was administered to each well. The plates were then incubated for 4 h. Then, the cells were exposed to different compounds at the desired concentrations (0.01, 0.1, 1, 10, and 100 µM) or to 1% dimethyl sulfoxide (DMSO) for 48 and 72 h. […] Then, the optical density was measured at 590 nm with the microplate reader (Sunrise, TECAN, Inc., Morrisville, NC, USA).

MCF-7 = assay: MTT cytotoxicity assay, MCF-7; type: cell-based; details: Homo sapiens, MCF7
Method: as §5

HePG-2 = assay: MTT cytotoxicity assay, HePG-2; type: cell-based; details: Homo sapiens, HepG2
Method: (§1) The cytotoxic activity was assessed using the 3-(4,5-dimethylthiazol-2-yl)-2,5-diphenyl tetrazolium bromide (MTT) colorimetric assay, as reported previously. Doxorubicin was used as a reference standard, and DMSO was used as a negative control. Briefly, the designated cell lines were cultured at a concentration of 5 × 10^4 cell/well in 96-well plates. The cells were incubated for 24 h under optimum conditions. Following this, the designated molecules were introduced (in serial dilutions from 0 to 50 μg/mL), and the cells were incubated for an additional 24 h. Following this, the media were withdrawn, and 100 μL of fresh medium was added. Then, 10 µL of the 12 mM MTT stock solution was administered to each well. The plates were then incubated for 4 h. […] An 85-μL aliquot of the media was removed from the wells, and 50 µL of DMSO was added to each well and mixed thoroughly with the pipette and incubated at 37 °C for 10 min. Then, the optical density was measured at 590 nm with the microplate reader (Sunrise, TECAN, Inc., Morrisville, NC, USA).

EGFR^WT = EGFR^WT (Homo sapiens, UniProt P00533); assay: In vitro EGFR enzyme inhibitory assay; type: biochemical
Method: The assays were conducted in Vacsera (Giza, Egypt). Curve fitting was performed using GraphPad Prism. Data are represented as means ± SD from three independent experiments.
Reader : Tecan Spark Reader

VEGFR-2 = VEGFR-2 (Homo sapiens, UniProt P35968); assay: In vitro VEGFR2 enzyme inhibitory assay; type: biochemical
Method: (§2) Curve fitting was performed using GraphPad Prism.
(§3) (1 picture or pasted object on this page, not shown here)

Topo-II [1] = target: T1, Topo-II (Homo sapiens, UniProt Q02880); assay: In vitro Topo II inhibitory assay; type: biochemical
T1 construct: purchased
Method: as §2, §3

Topo-II [2] = assay: In vitro Topo II inhibitory assay; type: biochemical, Human; details: fold, EGFR^WT versus Topo-II
Method: as §2, §3

WI-38 = assay: MTT assay on normal cell line WI-38; type: cell-based; details: normal human diploid fibroblasts
Method: (§4) According to our design, the tested compounds are classified into four categories based on the length and the chemotype of the spacer (Figure 3). In the first category, we used monosubstituted hydrazone linker. […] The second category is represented by […] hydrazone linker.
as §1

[3] = tested on: MCF-7, HCT116, and HePG-2; assay: MTT assay against three malignant cell lines (summary); type: cell-based; details: Homo sapiens, read-out: IC50 cytotoxicity (range over cell lines)
Method: as §4, §1

[4] = HCT-116, read-out: IC50 HCT-116, MTT, colon cancer cells
[5] = MTT, breast cancer cells, read-out: IC50 MCF-7
[6] = MTT, liver cancer cells, read-out: IC50 HePG-2
[7] = 24 h incubation, read-out: IC50 HePG-2 24 h
[8] = 48 h incubation, read-out: IC50 HePG-2 48 h
[9] = 72 h incubation, read-out: IC50 HePG-2 72 h

T1 sequence (Q02880 2-1626): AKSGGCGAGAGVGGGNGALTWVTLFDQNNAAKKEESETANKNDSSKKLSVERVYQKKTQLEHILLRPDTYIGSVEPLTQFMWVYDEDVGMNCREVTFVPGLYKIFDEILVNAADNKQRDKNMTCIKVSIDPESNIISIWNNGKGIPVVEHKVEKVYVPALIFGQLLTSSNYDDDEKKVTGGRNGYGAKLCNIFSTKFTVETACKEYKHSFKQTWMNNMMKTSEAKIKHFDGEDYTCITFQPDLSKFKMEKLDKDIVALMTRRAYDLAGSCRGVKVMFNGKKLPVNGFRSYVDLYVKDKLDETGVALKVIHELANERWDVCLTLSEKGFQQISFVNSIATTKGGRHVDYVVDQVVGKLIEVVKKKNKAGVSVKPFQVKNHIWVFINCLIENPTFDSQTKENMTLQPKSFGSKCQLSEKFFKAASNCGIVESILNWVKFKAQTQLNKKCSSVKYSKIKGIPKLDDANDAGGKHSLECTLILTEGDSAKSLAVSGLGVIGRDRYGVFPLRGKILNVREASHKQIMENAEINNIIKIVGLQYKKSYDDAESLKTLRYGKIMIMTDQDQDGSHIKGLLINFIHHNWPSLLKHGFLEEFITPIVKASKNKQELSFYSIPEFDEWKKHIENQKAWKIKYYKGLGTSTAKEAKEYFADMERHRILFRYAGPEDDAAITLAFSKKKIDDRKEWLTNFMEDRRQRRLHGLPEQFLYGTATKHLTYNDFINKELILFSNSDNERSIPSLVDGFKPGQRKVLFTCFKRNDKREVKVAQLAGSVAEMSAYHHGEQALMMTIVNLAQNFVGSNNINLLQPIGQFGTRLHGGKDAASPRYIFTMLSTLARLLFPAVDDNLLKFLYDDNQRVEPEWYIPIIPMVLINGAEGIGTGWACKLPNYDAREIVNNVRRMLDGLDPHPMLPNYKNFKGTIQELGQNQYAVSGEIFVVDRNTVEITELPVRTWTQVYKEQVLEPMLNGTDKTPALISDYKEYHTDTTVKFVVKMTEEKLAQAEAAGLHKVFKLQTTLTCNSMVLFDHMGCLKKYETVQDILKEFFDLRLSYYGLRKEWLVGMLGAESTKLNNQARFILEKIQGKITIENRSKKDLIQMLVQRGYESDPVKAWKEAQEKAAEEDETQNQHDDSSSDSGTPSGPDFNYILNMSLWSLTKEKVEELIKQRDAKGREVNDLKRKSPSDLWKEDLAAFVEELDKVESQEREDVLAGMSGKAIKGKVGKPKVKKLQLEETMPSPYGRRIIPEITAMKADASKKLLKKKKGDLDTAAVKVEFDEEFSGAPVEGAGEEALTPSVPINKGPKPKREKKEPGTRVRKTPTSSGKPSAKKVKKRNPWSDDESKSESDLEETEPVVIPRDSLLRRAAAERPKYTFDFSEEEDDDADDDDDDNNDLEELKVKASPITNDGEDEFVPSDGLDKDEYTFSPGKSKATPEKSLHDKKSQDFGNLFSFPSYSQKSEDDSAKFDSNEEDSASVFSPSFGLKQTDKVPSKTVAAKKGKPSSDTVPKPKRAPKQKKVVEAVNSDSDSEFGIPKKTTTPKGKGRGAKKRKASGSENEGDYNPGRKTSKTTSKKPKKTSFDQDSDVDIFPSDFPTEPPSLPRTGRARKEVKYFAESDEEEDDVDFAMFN
Chain of EGFR^WT (P00533 25-1210): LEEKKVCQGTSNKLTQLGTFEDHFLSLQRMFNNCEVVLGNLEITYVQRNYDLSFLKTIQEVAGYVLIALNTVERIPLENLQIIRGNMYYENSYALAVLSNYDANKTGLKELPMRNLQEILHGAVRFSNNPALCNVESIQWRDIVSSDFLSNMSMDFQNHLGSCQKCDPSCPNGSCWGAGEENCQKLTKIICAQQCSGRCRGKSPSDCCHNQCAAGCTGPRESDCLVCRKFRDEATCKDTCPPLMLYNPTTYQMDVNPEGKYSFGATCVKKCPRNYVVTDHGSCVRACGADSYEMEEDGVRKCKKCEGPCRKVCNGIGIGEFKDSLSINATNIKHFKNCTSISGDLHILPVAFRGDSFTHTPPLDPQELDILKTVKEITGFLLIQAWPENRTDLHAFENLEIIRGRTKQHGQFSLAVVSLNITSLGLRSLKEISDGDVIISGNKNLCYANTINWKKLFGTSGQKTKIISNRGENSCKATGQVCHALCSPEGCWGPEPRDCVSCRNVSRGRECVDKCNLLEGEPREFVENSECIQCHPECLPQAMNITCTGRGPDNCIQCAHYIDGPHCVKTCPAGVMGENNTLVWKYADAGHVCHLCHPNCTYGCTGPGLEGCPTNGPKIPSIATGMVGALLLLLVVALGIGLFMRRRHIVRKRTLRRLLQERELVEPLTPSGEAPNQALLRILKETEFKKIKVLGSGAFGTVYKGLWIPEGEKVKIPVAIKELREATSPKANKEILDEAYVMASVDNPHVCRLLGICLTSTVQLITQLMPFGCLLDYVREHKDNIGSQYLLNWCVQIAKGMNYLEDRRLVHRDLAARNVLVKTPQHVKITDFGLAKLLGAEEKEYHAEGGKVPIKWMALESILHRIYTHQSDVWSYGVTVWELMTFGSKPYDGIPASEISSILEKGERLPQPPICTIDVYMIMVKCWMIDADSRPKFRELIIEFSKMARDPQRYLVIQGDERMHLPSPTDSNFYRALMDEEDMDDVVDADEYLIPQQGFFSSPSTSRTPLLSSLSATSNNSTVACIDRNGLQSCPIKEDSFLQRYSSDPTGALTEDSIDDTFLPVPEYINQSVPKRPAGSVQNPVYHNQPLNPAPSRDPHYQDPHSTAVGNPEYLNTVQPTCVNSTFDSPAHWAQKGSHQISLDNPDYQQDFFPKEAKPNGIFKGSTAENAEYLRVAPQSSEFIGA
Chain of VEGFR-2 (P35968 20-1356): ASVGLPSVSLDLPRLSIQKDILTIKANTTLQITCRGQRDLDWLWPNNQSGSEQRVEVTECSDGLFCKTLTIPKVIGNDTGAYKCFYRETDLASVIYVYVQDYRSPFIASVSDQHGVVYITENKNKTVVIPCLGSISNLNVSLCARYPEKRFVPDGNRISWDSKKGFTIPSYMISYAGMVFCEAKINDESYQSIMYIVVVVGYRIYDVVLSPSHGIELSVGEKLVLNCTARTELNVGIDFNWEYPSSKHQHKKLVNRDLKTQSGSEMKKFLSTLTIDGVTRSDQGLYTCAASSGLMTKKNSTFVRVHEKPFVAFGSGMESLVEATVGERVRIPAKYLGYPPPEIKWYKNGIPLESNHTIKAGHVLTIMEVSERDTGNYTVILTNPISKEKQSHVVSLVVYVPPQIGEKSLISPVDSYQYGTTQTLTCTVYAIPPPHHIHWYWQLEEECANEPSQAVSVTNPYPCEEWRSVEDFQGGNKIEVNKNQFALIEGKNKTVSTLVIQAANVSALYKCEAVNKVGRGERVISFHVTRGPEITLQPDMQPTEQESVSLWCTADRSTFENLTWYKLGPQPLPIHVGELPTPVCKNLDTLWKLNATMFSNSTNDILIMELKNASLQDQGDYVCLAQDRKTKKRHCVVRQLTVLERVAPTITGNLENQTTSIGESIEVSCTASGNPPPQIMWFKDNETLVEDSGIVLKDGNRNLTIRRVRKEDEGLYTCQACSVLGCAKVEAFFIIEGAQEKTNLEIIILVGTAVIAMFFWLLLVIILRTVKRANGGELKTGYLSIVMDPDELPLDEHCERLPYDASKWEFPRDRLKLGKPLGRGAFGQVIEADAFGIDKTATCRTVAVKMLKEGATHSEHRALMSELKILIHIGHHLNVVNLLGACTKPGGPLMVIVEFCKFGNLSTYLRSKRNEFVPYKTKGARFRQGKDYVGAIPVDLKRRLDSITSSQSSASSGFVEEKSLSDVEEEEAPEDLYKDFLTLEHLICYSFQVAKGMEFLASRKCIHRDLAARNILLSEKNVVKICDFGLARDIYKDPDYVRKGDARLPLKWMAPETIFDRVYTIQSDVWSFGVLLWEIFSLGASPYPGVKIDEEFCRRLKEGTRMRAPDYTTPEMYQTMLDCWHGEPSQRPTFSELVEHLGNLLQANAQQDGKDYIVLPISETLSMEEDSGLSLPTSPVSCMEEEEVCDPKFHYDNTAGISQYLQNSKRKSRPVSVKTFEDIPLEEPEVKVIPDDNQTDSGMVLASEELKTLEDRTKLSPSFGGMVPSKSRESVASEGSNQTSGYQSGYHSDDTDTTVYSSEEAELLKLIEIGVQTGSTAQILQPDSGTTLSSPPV

Work on `Cc1nc(NN2C(=O)CCC2=O)c2cnn(-c3ccccc3)c2n1` [Compound 7, 1-((6-Methyl-1-phenyl-1H-pyrazolo[3,4-d]pyrimidin-4-yl)amino)pyrrolidine-2,5-dione] yielded an IC50 (HCT-116; [4]) of 73.5 ± 3.8 µM, a melting point of 280 to 282 °C and an IC50 (MCF-7; [5]) of 81 ± 4.6 µM. For the same molecule, the IC50 (HePG-2; [6]) was 87.2 ± 4.5 µM.

Molecule `CCNC(=S)NNc1nc(C)nc2c1cnn2-c1ccccc1` [Compound 9a, N-Ethyl-2-(6-methyl-1-phenyl-1H-pyrazolo[3,4-d]pyrimidin-4-yl)hydrazinecarbothioamide] has an IC50 (HCT-116; [4]) of 2.96 ± 0.1 µM, a melting point of 278 to 280 °C and an IC50 (MCF-7; [5]) of 7.61 ± 0.4 µM. It also gave an IC50 (HePG-2; [6]) of 5.97 ± 0.3 µM.

For `CCCCNC(=S)NNc1nc(C)nc2c1cnn2-c1ccccc1` [Compound 9c, N-Butyl-2-(6-methyl-1-phenyl-1H-pyrazolo[3,4-d]pyrimidin-4-yl)hydrazinecarbothioamide], the IC50 (HCT-116; [4]) was 16.6 ± 1.2 µM, the melting point was 270 to 272 °C and the IC50 (MCF-7; [5]) was 31.4 ± 1.9 µM. For the same molecule, the IC50 (HePG-2; [6]) was 20.3 ± 1.6 µM.

`C=CNC(=S)NNc1nc(C)nc2c1cnn2-c1ccccc1` [Compound 9d, 2-(6-Methyl-1-phenyl-1H-pyrazolo[3,4-d]pyrimidin-4-yl)-N-vinylhydrazine-1-carbothioamide] gave an IC50 (HCT-116; [4]) of 19.7 ± 1.4 µM, a melting point of 268 to 270 °C and an IC50 (MCF-7; [5]) of 35.2 ± 2.2 µM. For the same molecule, the IC50 (HePG-2; [6]) was 32.6 ± 2.4 µM.

For `Cc1nc(NNC(=S)Nc2ccccc2)c2cnn(-c3ccccc3)c2n1` [Compound 9e, 2-(6-Methyl-1-phenyl-1H-pyrazolo[3,4-d]pyrimidin-4-yl)-N-phenylhydrazinecarbothioamide], the IC50 (HCT-116; [4]) was 6.87 ± 0.5 µM, the IC50 (HCT-116; HCT-116, 24 h incubation, read-out: IC50 HCT116 24 h) was 6.87 ± 0.5 µM and the IC50 (HCT-116; HCT-116, 48 h incubation, read-out: IC50 HCT116 48 h) was 6.77 ± 0.4 µM. For the same molecule, the IC50 (HCT-116; HCT-116, 72 h incubation, read-out: IC50 HCT116 72 h) was 5.55 ± 0.4 µM, the melting point was 281 to 282 °C and the “EGFR %inh at conc 0.01” value (EGFR^WT; conc 0.01, unit not given) was 20%. For the same molecule, the “EGFR %inh at conc 0.1” value (EGFR^WT; conc 0.1, unit not given) was 42%, the “EGFR %inh at conc 1” value (EGFR^WT; conc 1, unit not given) was 58% and the “EGFR %inh at conc 10” value (EGFR^WT; conc 10, unit not given) was 83%. The IC50 (EGFR^WT; read-out: IC50 EGFR^WT) was 0.77 ± 0.018 µM, the IC50 (EGFR^WT; supplement lab report, read-out: EGFR IC50 (lab report) (converted)) was 0.77 µM and the “VEGFR2 %inh at conc 0.01” value (VEGFR-2; conc 0.01, unit not given) was 14%. For the same molecule, the “VEGFR2 %inh at conc 0.1” value (VEGFR-2; conc 0.1, unit not given) was 26%, the “VEGFR2 %inh at conc 1” value (VEGFR-2; conc 1, unit not given) was 46% and the “VEGFR2 %inh at conc 10” value (VEGFR-2; conc 10, unit not given) was 72%. For the same molecule, the “target selectivity index EGFR over VGFR-2” value (VEGFR-2; fold, EGFR^WT versus VGFR-2) was 21, the IC50 (VEGFR-2; read-out: IC50 VGFR2) was 16.2 ± 0.36 µM and the IC50 (VEGFR-2; supplement lab report, read-out: VEGFR2 IC50 (lab report) (converted)) was 16.2 µM. The “TOPO IiB %inh at conc 0.1” value (Topo-II [1]; conc 0.1, unit not given) was 4%, the “TOPO IiB %inh at conc 1” value (Topo-II [1]; conc 1, unit not given) was 16% and the “TOPO IiB %inh at conc 10” value (Topo-II [1]; conc 10, unit not given) was 34%. The “TOPO IiB %inh at conc 100” value (Topo-II [1]; conc 100, unit not given) was 65%, the IC50 (Topo-II [1]; read-out: IC50 Topo-II) was 24.6 ± 0.54 µM and the IC50 (Topo-II [1]; supplement lab report, Human DNA Topoisomerase 2B Kit, read-out: TOP2a IC50 (lab report) (converted)) was 24.6 µM. The “target selectivity index EGFR over Topo-II” value (Topo-II [2]) was 31, the IC50 (WI-38; Homo sapiens, WI-38, MTT) was greater than 35 µM and the IC50 (WI-38; MTT) was 66 ± 0.23 µM. It also gave an IC50 [3] of 3 to 10 µM, an IC50 (MCF-7; 24 h incubation, read-out: IC50 MCF-7 24 h) of 8.99 ± 0.5 µM and an IC50 (MCF-7; 48 h incubation, read-out: IC50 MCF-7 48 h) of 8.16 ± 0.8 µM. For the same molecule, the IC50 (MCF-7; 72 h incubation, read-out: IC50 MCF-7 72 h) was 7.45 ± 0.7 µM, the IC50 (MCF-7; [5]) was 8.99 ± 0.5 µM and the IC50 (HePG-2; [7]) was 7.8 ± 0.4 µM. It also gave an IC50 (HePG-2; [8]) of 8.28 ± 0.8 µM, an IC50 (HePG-2; [9]) of 5.93 ± 0.5 µM and an IC50 (HePG-2; [6]) of 7.8 ± 0.4 µM.

With `COc1cccc2c1C(=O)c1c(O)c3c(c(O)c1C2=O)C[C@@](O)(C(=O)CO)C[C@@H]3O[C@H]1C[C@H](N)[C@H](O)[C@H](C)O1` [DOX, Doxorubicin, reference compound] the IC50 (WI-38; Homo sapiens, WI-38, MTT) was 10.6 ± 0.47 µM, the IC50 (HePG-2; [7]) was 4.5 ± 0.2 µM and the IC50 (HePG-2; [8]) was 3.24 ± 0.2 µM. For the same molecule, the IC50 (HePG-2; [9]) was 1.07 ± 0.1 µM and the IC50 (HePG-2; [6]) was 4.5 ± 0.2 µM.
